Source: patent US8753691B2, “Antiviral colloidal silver composition” (priority 1999, dated 2014)

Tested on: Mycobacterium bovis BCG (TMC 1028)
Format: cell-based

## Oc1ccccc1 [phenol]
  log reduction (phenol resistance): ≈ 1.81
